Results: US10729785B2, “Particles comprising protamine and RNA in combination with endosome destabilizing agents” (BioNTech SE, priority 2014, dated 2020)

System: fresh human red blood cells
Experiment: Validation of EDA: lysis of red blood cells at acidic pH (OD 405 nm of supernatant as surrogate of hemoglobin content)
Format: cell-based
Conditions: pH below 6, 7 hours; for damage of red blood cells / destabilization of cell membranes (OD 405 nm, hemoglobin content): 6 micrograms of peptide, 3 million human red blood cells in PBS, 37° C.

Sequence | damage of red blood cells / destabilization of cell membranes (OD 405 nm, hemoglobin content) | relative efficacy in damaging red blood cells (peptide 2 compared with peptide 1)
GLFEAIEGFIENGWEGLAEALAEALEALAAGGSC (Peptide 2) [Peptide derived from Influenza virus hemagglutinin, used as endosome destabilizing agent] | damages red blood cells | more efficacious than peptide 1
GLFEAIEGFIENGWEGMIDGWYG [peptide 1] | damages red blood cells | –
